Data reported in publication PMC11801377, “A uniquely efficacious type of CFTR corrector with complementary mode of action” (Science Advances, 2024).

How the values were obtained:
Assay type in all cases: cell-based
Details in all cases: 48 hours, IDOR-3 2 μM, IDOR-4 0.4 μM, TEZ 2 μM + ELX 0.4 μM
V520F CFTR = target: T1, V520F CFTR (Homo sapiens, UniProt P13569, V520F); assay: CFTR correction (immunoblotting), HEK-TREx, V520F
T1 construct: expressed in transfected cells; host or cells: T-REx HEK293
T1 sequence (P13569 whole entry V520F): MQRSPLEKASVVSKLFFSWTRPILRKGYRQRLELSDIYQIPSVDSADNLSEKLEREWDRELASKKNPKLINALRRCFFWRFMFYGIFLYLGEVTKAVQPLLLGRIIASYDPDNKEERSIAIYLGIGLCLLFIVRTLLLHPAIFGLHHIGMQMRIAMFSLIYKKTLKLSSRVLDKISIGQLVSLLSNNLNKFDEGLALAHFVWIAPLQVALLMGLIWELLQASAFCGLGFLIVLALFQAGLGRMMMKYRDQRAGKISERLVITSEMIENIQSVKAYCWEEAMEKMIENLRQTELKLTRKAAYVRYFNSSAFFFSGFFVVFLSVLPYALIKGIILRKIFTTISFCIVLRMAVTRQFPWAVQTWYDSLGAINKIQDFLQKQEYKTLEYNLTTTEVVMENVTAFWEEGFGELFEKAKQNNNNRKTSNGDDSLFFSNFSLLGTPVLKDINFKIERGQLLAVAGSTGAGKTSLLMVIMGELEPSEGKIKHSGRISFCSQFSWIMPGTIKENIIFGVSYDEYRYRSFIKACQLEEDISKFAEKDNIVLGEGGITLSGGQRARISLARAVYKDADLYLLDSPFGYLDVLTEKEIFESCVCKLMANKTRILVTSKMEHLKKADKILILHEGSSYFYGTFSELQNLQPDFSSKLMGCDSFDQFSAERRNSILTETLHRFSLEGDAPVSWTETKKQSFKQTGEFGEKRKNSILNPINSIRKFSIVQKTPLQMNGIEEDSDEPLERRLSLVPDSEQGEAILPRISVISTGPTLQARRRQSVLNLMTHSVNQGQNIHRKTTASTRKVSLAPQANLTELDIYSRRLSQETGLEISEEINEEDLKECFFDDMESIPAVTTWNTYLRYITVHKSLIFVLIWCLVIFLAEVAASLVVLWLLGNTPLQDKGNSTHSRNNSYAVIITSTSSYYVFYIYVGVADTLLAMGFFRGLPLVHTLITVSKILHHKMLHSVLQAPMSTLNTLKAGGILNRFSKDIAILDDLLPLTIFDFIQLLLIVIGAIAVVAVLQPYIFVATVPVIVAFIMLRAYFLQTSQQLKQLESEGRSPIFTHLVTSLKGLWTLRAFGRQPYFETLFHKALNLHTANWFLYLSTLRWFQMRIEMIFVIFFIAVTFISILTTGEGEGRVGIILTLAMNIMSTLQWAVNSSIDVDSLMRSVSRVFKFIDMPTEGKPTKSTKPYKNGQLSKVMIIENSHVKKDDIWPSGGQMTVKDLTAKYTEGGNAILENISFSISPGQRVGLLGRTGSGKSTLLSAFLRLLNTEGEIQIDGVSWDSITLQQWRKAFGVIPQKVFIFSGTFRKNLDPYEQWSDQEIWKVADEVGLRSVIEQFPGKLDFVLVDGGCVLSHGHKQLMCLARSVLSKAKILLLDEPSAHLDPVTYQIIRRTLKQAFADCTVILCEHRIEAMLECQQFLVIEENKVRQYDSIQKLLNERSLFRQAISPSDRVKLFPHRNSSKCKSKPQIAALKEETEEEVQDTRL
Excerpt: (§1) The human CFTR expressing HEK cell pools with the mutations described below were generated by integrase-mediated homologous recombination of the CFTR sequence into the T-REx HEK293 background (Thermo Fisher Scientific). This expression system allows the tetracycline-inducible expression of genes of interest from one defined insertion site. Parental T-REx-HEK293 cells were cultivated in growth medium: Dulbecco’s modified Eagle’s medium + GlutaMAX-I (#31966, Life Technologies), 10% dialyzed FBS (Gibco, #26400), penicillin (100 U/ml), streptomycin (100 μg/ml), hygromycin B (0.1 mg/ml; Life Technologies), blasticidin (5 μg/ml; Invitrogen, #R210-01), and 0.1 mM nonessential amino acid solution (Invitrogen, #11140-035). Recombinant T-REx-HEK-CFTR cells were generated by lipofectamine transfection (Life Technologies) of plasmids containing mutated versions of CFTR (RefSeq NM_000492) and then cultivated in selection medium [growth medium containing Geneticin (1 mg/ml) (Invitrogen, #10131-027) instead of hygromycin]. The plasmid constructs were synthetized by GENEART (Thermo Fisher Scientific) and designed with the WT CFTR intron 5 to 6 (880 nucleotides) to prevent leaky expression issues during the cloning process in bacteria. […]

S945L CFTR = target: T2, S945L CFTR (Homo sapiens, UniProt P13569, S945L); assay: CFTR correction (immunoblotting), HEK-TREx, S945L
T2 construct: expressed in transfected cells; host or cells: T-REx HEK293
T2 sequence (P13569 whole entry S945L): as the sequence (P13569 whole entry V520F) above, with F520V, S945L counted along it
Excerpt: as §1

M1101K CFTR = target: T3, M1101K CFTR (Homo sapiens, UniProt P13569, M1101K); assay: CFTR correction (immunoblotting), HEK-TREx, M1101K
T3 construct: expressed in transfected cells; host or cells: T-REx HEK293
T3 sequence (P13569 whole entry M1101K): as the sequence (P13569 whole entry V520F) above, with F520V, M1101K counted along it
Excerpt: as §1

G85E CFTR = target: T4, G85E CFTR (Homo sapiens, UniProt P13569, G85E); assay: CFTR correction (immunoblotting), HEK-TREx, G85E
T4 construct: expressed in transfected cells; host or cells: T-REx HEK293
T4 sequence (P13569 whole entry G85E): as the sequence (P13569 whole entry V520F) above, with G85E, F520V counted along it
Excerpt: as §1

COc1cc(CCNC(=O)C2CC(=O)N(C)C(CC(C)C)C(=O)N3CCCCC3C(=O)NC(Cc3ccccc3)COc3ccc4ncc(F)cc4c3C(=O)N2)on1 (stereo not shown) [IDOR-3]
highly effective: correction of V520F (V520F CFTR) | correction of S945L (S945L CFTR) | correction of M1101K (M1101K CFTR) | correction of G85E (G85E CFTR)
